Laboratory results: US20100158858A1, “ADMINISTRATION OF CARBOLINE DERIVATIVES USEFUL IN THE TREATMENT OF CANCER AND OTHER DISEASES” (priority 2007, published 2010)
Like-named read-outs stand apart in the source and are kept apart here. Marks after values point to notes of the source that are not given here.

Tested on: MCF-7 breast cancer cells transfected with the human aromatase gene
Conditions: for Mean % Inhibition of Tumor Size vs Vehicle at Day 42 / Mean Tumor Size at Day 98 / Mice cured / Mice dead / Mice with Escape to 500 mm^3 / Percent of mice with cures: letrazole only
Procedure: The relative effects of the aromatase inhibitor agent letrozole and a test compound of the present invention were evaluated, when administered alone or in combination, on the in vivo growth of MCF-7 breast cancer cells transfected with the human aromatase gene.
In this study, cells (7.0×10^6 cells/mouse) were implanted subcutaneously in female ovariectomized athymic nude mice (n=10). Androstenedione was administered (via slow-release pellets) as a source of […].
The daily dose was administered in a target volume of 0.1 mL, which was adjusted according to subject weight. The oral vehicle was L21 (a mixture of 35% Labrasol, 35% Labrafac, and 30% Solutol). Individual vehicle-treated mice were removed from study when the tumor reached 1500 mm^3. After 100 days of treatment, treatment was stopped.

[1] = 10 μg/mouse orally once per day
[2] = 30 μg/mouse orally once per day

## N#Cc1ccc(C(c2ccc(C#N)cc2)n2cncn2)cc1 [letrozole]
[1]
  Mean % Inhibition of Tumor Size vs Vehicle at Day 42: 72%
  Mean Tumor Size at Day 98: 225 mm^3
  Mice cured: 0 of 9
  Mice dead: 1
  Mice with Escape to 500 mm^3: 2
  Percent of mice with cures: 0% cured
[2]
  Mean % Inhibition of Tumor Size vs Vehicle at Day 42: 91%**
  Mean Tumor Size at Day 98: 146 mm^3
  Mice cured: 2 of 9
  Mice dead: 1
  Mice with Escape to 500 mm^3: 0
  Percent of mice with cures: 22% cured
Letrozole (10 μg/mouse) alone
  Effect on tumor growth: the tumors did not regress, tumor growth was prevented
Letrozole (30 μg/mouse) alone
  Effect on tumor growth: the tumors regressed
  Mice with cures (no measurable tumor) at Day 100: two of the nine
